# Measured values: the supplement of paper PMC11061612
# Key:
# Assay in all cases: combination Emax (second highest fraction inhibited in the dose matrix, 72 h); higher = more inhibition; extreme values may be limits of the assay
# 8-MG-BA (Glioblastoma) = tested on: 8-MG-BA (Glioblastoma)
# Procedure, shortened: (§1)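 Cell lines in DMEM/F12 or RPMI with 10% FBS were plated in 1536-well plates, held 24 hours at 37°C, 5% CO2, then given two-drug dose matrices for 72 hours (DMSO typically 0.2%). Viability was read by CellTiter-Glo 2.0 luminescence and scaled as inhibition from 0 (vehicle wells) to 1 (blank wells). Combination Emax is the second-highest inhibition in the matrix; Bliss excess is observed combination effect minus expected EA + EB − EA·EB, EA and EB being single-agent effects.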
# [1] = tested on: A3-KAW (B-Cell Non-Hodgkin's Lymphoma)
# Procedure, shortened: as §1
# A498 (Kidney Carcinoma) = tested on: A498 (Kidney Carcinoma)
# Procedure, shortened: as §1
# [2] = tested on: A549 (Lung Adenocarcinoma)
# Procedure, shortened: as §1
# ARH-77 (Non-Cancerous) = tested on: ARH-77 (Non-Cancerous)
# Procedure, shortened: as §1
# [3] = tested on: BICR22 (Oral Cavity Carcinoma)
# Procedure, shortened: as §1
# [4] = tested on: CAL-29 (Bladder Carcinoma)
# Procedure, shortened: as §1
# [5] = tested on: CAPAN-2 (Pancreatic Carcinoma)
# Procedure, shortened: as §1
# CAS-1 (Glioblastoma) = tested on: CAS-1 (Glioblastoma)
# Procedure, shortened: as §1
# [6] = tested on: COR-L311 (Small Cell Lung Carcinoma)
# Procedure, shortened: as §1
# Hs-445 (Non-Cancerous) = tested on: Hs-445 (Non-Cancerous)
# Procedure, shortened: as §1
# IGR-37 (Melanoma) = tested on: IGR-37 (Melanoma)
# Procedure, shortened: as §1
# [7] = tested on: JSC-1 (B-Cell Non-Hodgkin's Lymphoma)
# Procedure, shortened: as §1
# NY (Osteosarcoma) = tested on: NY (Osteosarcoma)
# Procedure, shortened: as §1
# [8] = tested on: ONS-76 (Other Solid Carcinomas)
# Procedure, shortened: as §1
# [9] = tested on: OS-RC-2 (Kidney Carcinoma)
# Procedure, shortened: as §1
# [10] = tested on: PANC-10-05 (Pancreatic Carcinoma)
# Procedure, shortened: as §1
# [11] = tested on: SISO (Cervical Carcinoma)
# Procedure, shortened: as §1
# [12] = tested on: TT (Thyroid Gland Carcinoma)
# Procedure, shortened: as §1
# [13] = tested on: VCaP (Prostate Carcinoma)
# Procedure, shortened: as §1
Structure (SMILES),combination Emax (8-MG-BA (Glioblastoma)),combination Emax [1],combination Emax (A498 (Kidney Carcinoma)),combination Emax [2],combination Emax (ARH-77 (Non-Cancerous)),combination Emax [3],combination Emax [4],combination Emax [5],combination Emax (CAS-1 (Glioblastoma)),combination Emax [6],combination Emax (Hs-445 (Non-Cancerous)),combination Emax (IGR-37 (Melanoma)),combination Emax [7],combination Emax (NY (Osteosarcoma)),combination Emax [8],combination Emax [9],combination Emax [10],combination Emax [11],combination Emax [12],combination Emax [13]
"Cc1c2c(nn1C)CSCc1cc(n(C)n1)CSc1cc(c3ccccc3c1)OCCCc1c(C(=O)O)n(C)c3c-2c(Cl)ccc13 [AZD5991] + Cc1cc2ncnn2cc1Nc1ncc2c(n1)n(C1CCOCC1)c(=O)n2C [AZD7648] (first compound max 1 µM, 7x7, partner max 10 µM)",0.646,1,0.423,0.461,0.835,0.499,0.43,0.291,0.401,0.343,0.942,0.25,1,0.579,0.315,0.286,0.404,0.191,0.38,0.94
"C[C@@H]1COCCN1c1cc(C2([S@](C)(=N)=O)CC2)nc(-c2ccnc3[nH]ccc23)n1 [AZD6738] + O=C(c1cc(Cc2n[nH]c(=O)c3ccccc23)ccc1F)N1CCN(C(=O)C2CC2)CC1 [Olaparib] (first compound max 10 µM, 7x7, partner max 10 µM)",0.85,0.984,0.636,0.809,0.911,0.711,0.71,0.309,0.48,0.509,0.835,0.738,0.822,0.607,0.894,0.435,0.486,0.595,0.419,0.374
"Cc1cc2ncnn2cc1Nc1ncc2c(n1)n(C1CCOCC1)c(=O)n2C [AZD7648] + C=CCn1c(=O)c2cnc(Nc3ccc(N4CCN(C)CC4)cc3)nc2n1-c1cccc(C(C)(C)O)n1 [AZD1775] (first compound max 10 µM, partner max 1 µM)",0.648,0.896,0.521,0.578,0.969,0.643,0.618,0.485,0.566,0.571,0.909,0.674,0.931,0.548,0.589,0.419,0.49,0.577,0.475,0.533
"Cc1cc2ncnn2cc1Nc1ncc2c(n1)n(C1CCOCC1)c(=O)n2C [AZD7648] + CCN(CCO)CCCOc1ccc2c(Nc3cc(CC(=O)Nc4cccc(F)c4)[nH]n3)ncnc2c1 [AZD2811] (first compound max 10 µM, 7x7, partner max 1 µM)",0.358,0.608,0.439,0.718,0.54,0.605,0.301,0.239,0.427,0.829,0.465,0.285,0.486,0.242,0.398,0.287,0.43,0.265,0.611,0.314
"Cc1cc2ncnn2cc1Nc1ncc2c(n1)n(C1CCOCC1)c(=O)n2C [AZD7648] + CN(C)CCCOc1ccc(-c2ccc3ncc4c(c3c2)n(C2CCOCC2)c(=O)n4C)cn1 [AZD0156] (first compound max 10 µM, 7x7, partner max 1 µM)",0.31,0.597,0.401,0.468,0.54,0.384,0.218,0.253,0.314,0.256,0.313,0.263,0.303,0.286,0.26,0.261,0.483,0.16,0.41,0.265
"Cc1cc2ncnn2cc1Nc1ncc2c(n1)n(C1CCOCC1)c(=O)n2C [AZD7648] + C[C@@H]1COCCN1C2=NC(=NC(=C2)C3(CC3)[S@](=N)(=O)C)C4=C5C=CNC5=NC=C4 [AZD6738] (first compound max 10 µM, 7x7, partner max 10 µM)",0.769,0.969,0.585,0.786,0.89,0.761,0.598,0.346,0.609,0.214,0.853,0.761,0.896,0.527,0.825,0.419,0.49,0.505,0.604,0.452
"Cc1cc2ncnn2cc1Nc1ncc2c(n1)n(C1CCOCC1)c(=O)n2C [AZD7648] + O=C(c1cc(Cc2n[nH]c(=O)c3ccccc23)ccc1F)N1CCN(C(=O)C2CC2)CC1 [Olaparib] (first compound max 10 µM, 7x7, partner max 10 µM)",0.329,0.656,0.441,0.59,0.522,0.141,0.384,0.0547,0.271,0.456,0.373,0.109,0.0503,0.14,0.246,0.224,0.299,0.207,0.161,0.141
"NC1(C(=O)N[C@@H](CCO)c2ccc(Cl)cc2)CCN(c2ncnc3[nH]ccc23)CC1 [Capivasertib] + CC(=O)c1c(C)c2cnc(Nc3ccc(N4CCNCC4)cn3)nc2n(C2CCCC2)c1=O [Palbociclib] (first compound max 10 µM, 7x7, partner max 10 µM)",0.597,0.846,0.629,0.764,0.705,0.329,0.479,0.242,0.635,0.68,0.613,0.396,0.669,0.161,0.557,0.454,0.49,0.201,0.447,0.514
"NC1(C(=O)N[C@@H](CCO)c2ccc(Cl)cc2)CCN(c2ncnc3[nH]ccc23)CC1 [Capivasertib] + CC(C)n1c(=O)n(C)c2cnc3cc(F)c(-c4ccc(OCCCN5CCCCC5)nc4)cc3c21 [AZD1390] (first compound max 10 µM, 7x7, partner max 0.3 µM)",0.387,0.49,0.542,0.59,0.657,0.312,0.337,0.222,0.543,0.685,0.483,0.447,0.364,0.309,0.386,0.401,0.416,0.269,0.425,0.458
"NC1(C(=O)N[C@@H](CCO)c2ccc(Cl)cc2)CCN(c2ncnc3[nH]ccc23)CC1 [Capivasertib] + CCN(CCO)CCCOc1ccc2c(Nc3cc(CC(=O)Nc4cccc(F)c4)[nH]n3)ncnc2c1 [AZD2811] (first compound max 10 µM, 7x7, partner max 1 µM)",0.508,0.674,0.586,0.698,0.748,0.562,0.452,0.219,0.635,0.915,0.678,0.371,0.69,0.257,0.589,0.445,0.42,0.477,0.544,0.543
"NC1(C(=O)N[C@@H](CCO)c2ccc(Cl)cc2)CCN(c2ncnc3[nH]ccc23)CC1 [Capivasertib] + COc1nnc2ccc(N3CCC(c4ccc(OCCN5CCN(C)C(=O)[C@H]5C)cc4)CC3)nn12 [AZD5153] (first compound max 10 µM, 7x7, partner max 1 µM)",0.797,1,0.824,0.823,0.885,0.631,0.723,0.33,0.735,1,0.722,0.662,0.793,0.346,0.627,0.433,0.669,0.421,0.695,0.96
"NC1(C(=O)N[C@@H](CCO)c2ccc(Cl)cc2)CCN(c2ncnc3[nH]ccc23)CC1 [Capivasertib] + C[C@@H]1COCCN1C2=NC(=NC(=C2)C3(CC3)[S@](=N)(=O)C)C4=C5C=CNC5=NC=C4 [AZD6738] (first compound max 10 µM, 7x7, partner max 10 µM)",0.873,0.992,0.694,0.848,0.927,0.812,0.716,0.219,0.735,0.787,0.78,0.733,0.95,0.645,0.852,0.481,0.519,0.586,0.484,0.567
"NC1(C(=O)N[C@@H](CCO)c2ccc(Cl)cc2)CCN(c2ncnc3[nH]ccc23)CC1 [Capivasertib] + Cn1cnc2c(F)c(Nc3ccc(Br)cc3Cl)c(C(=O)NOCCO)cc21 [Selumetinib] (first compound max 10 µM, 7x7, partner max 10 µM)",0.592,0.698,0.799,0.922,0.674,0.949,0.66,0.504,0.682,0.625,0.623,0.897,0.724,0.305,0.873,0.439,0.727,0.269,0.587,0.487
